Data published in ChEMBL document CHEMBL4507268 (2021).

Assays:
Conditions in all cases: Compound concentration 1.0 uM
[1] = target: Tyrosine-protein kinase receptor UFO (Homo sapiens) (UniProt P30530)
[2] = target: Casein kinase I isoform delta (Homo sapiens) (UniProt P48730)
[3] = target: T1, Serine/threonine-protein kinase 3 (Homo sapiens) (UniProt Q13188)
T1 sequence (whole entry): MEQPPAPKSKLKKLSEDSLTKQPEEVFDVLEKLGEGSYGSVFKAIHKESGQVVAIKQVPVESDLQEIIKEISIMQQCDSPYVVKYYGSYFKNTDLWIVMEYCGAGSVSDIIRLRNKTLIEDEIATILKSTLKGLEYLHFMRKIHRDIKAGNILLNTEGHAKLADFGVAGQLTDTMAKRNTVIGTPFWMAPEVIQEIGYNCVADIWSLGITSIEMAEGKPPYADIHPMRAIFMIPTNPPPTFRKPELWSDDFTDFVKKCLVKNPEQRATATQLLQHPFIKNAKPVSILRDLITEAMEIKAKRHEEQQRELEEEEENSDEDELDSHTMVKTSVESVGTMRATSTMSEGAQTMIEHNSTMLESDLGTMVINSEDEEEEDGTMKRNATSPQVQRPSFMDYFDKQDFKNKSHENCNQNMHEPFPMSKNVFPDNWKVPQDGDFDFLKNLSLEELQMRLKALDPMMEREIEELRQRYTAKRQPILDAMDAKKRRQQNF

[4] = target: T2, Aurora kinase A (Homo sapiens) (UniProt O14965)
T2 sequence (whole entry): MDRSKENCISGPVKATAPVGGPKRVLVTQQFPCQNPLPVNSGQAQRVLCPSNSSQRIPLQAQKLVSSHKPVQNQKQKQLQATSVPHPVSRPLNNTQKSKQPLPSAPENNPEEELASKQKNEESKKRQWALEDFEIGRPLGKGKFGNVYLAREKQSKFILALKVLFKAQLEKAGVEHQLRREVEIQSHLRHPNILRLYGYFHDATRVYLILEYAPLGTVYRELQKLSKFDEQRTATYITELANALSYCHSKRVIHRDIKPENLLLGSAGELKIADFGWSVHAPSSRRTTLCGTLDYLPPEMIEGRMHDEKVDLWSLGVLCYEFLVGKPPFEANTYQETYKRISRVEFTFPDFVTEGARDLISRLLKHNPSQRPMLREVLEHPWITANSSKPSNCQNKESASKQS

[5] = target: Hepatocyte growth factor receptor (Homo sapiens) (UniProt P08581)
[6] = target: Serine/threonine-protein kinase 16 (Homo sapiens) (UniProt O75716)
Chain of Serine/threonine-protein kinase 16 (Homo sapiens) (O75716 whole entry): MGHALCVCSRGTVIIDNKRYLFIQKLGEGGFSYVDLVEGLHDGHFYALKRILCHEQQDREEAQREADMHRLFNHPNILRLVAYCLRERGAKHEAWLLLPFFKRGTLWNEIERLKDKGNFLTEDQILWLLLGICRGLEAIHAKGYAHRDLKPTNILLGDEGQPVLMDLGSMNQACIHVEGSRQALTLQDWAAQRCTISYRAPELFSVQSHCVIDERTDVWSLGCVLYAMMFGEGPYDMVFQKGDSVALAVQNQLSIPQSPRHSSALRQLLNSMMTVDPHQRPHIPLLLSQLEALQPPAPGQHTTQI

[7] = target: Platelet-derived growth factor receptor beta (Homo sapiens) (UniProt P09619)
Chain of Platelet-derived growth factor receptor beta (Homo sapiens) (P09619 whole entry): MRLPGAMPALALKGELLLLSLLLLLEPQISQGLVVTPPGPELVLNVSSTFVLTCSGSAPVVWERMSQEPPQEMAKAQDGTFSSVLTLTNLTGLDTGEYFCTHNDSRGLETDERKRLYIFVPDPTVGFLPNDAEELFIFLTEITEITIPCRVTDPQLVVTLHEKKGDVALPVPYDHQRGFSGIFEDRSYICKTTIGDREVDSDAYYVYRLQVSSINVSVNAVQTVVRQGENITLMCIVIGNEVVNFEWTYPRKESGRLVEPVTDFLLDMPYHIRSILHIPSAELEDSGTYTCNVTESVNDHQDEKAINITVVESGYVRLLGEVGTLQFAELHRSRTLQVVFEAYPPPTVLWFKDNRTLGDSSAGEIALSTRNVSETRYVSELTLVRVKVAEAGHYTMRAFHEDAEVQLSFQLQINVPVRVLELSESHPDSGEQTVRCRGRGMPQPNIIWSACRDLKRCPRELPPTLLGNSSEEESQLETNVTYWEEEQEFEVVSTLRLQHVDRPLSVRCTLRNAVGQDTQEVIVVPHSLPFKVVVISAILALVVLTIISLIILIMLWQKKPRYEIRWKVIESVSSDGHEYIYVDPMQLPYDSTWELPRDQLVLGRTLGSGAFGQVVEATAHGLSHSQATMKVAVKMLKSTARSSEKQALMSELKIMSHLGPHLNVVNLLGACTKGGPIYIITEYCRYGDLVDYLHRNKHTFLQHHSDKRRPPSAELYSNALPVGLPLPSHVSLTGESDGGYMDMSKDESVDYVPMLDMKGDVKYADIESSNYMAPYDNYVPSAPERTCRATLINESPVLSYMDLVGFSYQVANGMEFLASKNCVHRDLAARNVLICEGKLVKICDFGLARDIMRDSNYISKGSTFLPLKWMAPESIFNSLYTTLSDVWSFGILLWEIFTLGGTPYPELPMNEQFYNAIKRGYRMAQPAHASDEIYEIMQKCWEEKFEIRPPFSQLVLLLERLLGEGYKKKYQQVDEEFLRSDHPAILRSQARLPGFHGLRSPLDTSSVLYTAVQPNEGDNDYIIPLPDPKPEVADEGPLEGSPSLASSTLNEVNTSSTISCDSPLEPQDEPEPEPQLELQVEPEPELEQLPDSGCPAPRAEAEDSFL

[8] = target: Myosin light chain kinase 2, skeletal/cardiac muscle (Homo sapiens) (UniProt Q9H1R3)
[9] = target: Tyrosine-protein kinase ABL1 (Homo sapiens) (UniProt P00519)
Chain of Tyrosine-protein kinase ABL1 (Homo sapiens) (P00519 whole entry): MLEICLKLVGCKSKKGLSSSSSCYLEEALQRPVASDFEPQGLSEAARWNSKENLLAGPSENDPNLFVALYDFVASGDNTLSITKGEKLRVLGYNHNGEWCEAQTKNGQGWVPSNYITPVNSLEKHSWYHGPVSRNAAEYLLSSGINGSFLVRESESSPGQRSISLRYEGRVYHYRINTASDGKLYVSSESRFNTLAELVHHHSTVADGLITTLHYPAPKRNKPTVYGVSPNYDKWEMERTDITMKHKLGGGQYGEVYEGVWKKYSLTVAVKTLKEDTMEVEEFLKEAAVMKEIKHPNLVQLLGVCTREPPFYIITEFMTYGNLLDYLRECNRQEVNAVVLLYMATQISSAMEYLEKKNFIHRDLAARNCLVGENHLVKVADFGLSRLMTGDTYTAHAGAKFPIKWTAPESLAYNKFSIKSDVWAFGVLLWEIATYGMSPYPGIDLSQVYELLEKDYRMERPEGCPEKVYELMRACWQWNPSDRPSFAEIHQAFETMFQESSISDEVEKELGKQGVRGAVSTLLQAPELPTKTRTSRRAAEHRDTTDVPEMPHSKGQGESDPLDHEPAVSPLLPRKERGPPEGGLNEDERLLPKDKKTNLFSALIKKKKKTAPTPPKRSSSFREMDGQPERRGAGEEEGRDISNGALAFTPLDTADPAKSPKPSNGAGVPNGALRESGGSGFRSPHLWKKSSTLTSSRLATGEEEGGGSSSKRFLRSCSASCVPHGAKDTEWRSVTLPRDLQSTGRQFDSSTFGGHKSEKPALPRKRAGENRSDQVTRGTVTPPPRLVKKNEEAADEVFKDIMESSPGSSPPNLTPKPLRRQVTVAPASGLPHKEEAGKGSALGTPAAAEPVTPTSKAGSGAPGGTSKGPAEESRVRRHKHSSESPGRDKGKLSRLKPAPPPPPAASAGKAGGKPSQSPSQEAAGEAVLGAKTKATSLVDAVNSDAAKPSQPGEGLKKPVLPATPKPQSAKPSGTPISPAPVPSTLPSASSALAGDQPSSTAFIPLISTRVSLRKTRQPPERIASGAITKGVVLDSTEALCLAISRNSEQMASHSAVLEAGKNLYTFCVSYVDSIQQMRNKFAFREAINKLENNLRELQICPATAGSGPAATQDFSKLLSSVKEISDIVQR

[10] = target: Casein kinase II subunit alpha (Homo sapiens) (UniProt P68400)
Chain of Casein kinase II subunit alpha (Homo sapiens) (P68400 whole entry, looked up): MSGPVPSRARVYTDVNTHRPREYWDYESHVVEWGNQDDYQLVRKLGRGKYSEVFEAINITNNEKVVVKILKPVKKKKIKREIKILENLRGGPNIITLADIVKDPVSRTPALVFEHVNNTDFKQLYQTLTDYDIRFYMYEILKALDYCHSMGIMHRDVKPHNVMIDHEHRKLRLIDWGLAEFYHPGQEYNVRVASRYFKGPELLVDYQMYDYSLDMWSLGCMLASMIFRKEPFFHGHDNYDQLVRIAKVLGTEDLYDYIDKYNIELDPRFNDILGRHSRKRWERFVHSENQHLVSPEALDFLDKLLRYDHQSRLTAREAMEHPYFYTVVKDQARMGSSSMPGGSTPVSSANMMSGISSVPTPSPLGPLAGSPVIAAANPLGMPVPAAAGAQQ

[11] = target: T3, cGMP-dependent protein kinase 2 (Homo sapiens) (UniProt Q13237)
T3 sequence (whole entry): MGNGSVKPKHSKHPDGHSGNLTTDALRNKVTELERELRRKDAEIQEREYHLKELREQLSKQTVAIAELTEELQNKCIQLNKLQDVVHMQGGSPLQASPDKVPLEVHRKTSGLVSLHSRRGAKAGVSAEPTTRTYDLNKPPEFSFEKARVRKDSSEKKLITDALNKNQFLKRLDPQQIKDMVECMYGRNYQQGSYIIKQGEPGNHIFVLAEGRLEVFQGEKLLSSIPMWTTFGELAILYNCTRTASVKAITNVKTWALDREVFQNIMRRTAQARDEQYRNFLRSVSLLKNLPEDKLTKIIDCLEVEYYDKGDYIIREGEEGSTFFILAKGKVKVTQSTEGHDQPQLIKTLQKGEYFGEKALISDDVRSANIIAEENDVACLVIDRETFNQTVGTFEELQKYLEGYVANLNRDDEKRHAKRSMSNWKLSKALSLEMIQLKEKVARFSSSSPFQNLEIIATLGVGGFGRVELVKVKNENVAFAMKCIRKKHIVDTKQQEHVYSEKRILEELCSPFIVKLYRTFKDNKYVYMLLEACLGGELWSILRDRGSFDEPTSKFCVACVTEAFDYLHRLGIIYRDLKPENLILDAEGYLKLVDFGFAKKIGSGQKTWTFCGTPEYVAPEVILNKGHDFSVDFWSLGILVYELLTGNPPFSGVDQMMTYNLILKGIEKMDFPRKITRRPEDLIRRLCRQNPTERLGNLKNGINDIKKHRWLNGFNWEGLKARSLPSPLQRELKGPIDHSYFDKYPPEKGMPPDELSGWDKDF

[12] = target: T4, Calcium/calmodulin-dependent protein kinase type IV (Homo sapiens) (UniProt Q16566)
T4 sequence (whole entry): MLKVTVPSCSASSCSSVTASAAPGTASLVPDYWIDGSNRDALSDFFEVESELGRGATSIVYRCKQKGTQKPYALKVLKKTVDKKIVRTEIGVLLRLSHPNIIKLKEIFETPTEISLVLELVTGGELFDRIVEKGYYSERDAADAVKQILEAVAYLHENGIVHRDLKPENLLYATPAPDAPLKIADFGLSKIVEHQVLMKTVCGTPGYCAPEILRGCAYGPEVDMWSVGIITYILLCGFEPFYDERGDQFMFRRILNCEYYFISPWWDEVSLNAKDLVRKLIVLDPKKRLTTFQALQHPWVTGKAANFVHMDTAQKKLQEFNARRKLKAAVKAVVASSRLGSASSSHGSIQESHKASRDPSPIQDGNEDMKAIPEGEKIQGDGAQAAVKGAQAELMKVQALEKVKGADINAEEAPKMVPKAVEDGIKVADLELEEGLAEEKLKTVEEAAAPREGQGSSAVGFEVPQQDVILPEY

[13] = target: Serine/threonine-protein kinase Chk2 (Homo sapiens) (UniProt O96017)
Chain of Serine/threonine-protein kinase Chk2 (Homo sapiens) (O96017 whole entry): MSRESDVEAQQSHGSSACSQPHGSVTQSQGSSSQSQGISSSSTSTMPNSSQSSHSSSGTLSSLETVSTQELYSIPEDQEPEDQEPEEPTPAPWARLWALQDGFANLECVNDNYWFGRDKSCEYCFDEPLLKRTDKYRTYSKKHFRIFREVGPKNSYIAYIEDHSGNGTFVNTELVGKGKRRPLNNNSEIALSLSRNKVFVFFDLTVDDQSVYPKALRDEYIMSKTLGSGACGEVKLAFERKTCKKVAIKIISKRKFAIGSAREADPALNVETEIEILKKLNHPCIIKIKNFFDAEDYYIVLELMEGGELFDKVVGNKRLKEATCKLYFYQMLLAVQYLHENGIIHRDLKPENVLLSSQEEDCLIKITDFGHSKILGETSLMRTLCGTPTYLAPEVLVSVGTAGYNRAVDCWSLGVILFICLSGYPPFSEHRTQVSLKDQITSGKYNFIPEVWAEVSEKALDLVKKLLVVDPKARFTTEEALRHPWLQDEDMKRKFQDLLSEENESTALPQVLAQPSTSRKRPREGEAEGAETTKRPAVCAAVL

[14] = target: Serine/threonine-protein kinase tousled-like 2 (Homo sapiens) (UniProt Q86UE8)
[15] = target: Calcium/calmodulin-dependent protein kinase type 1G (Homo sapiens) (UniProt Q96NX5)
Chain of Calcium/calmodulin-dependent protein kinase type 1G (Homo sapiens) (Q96NX5 whole entry): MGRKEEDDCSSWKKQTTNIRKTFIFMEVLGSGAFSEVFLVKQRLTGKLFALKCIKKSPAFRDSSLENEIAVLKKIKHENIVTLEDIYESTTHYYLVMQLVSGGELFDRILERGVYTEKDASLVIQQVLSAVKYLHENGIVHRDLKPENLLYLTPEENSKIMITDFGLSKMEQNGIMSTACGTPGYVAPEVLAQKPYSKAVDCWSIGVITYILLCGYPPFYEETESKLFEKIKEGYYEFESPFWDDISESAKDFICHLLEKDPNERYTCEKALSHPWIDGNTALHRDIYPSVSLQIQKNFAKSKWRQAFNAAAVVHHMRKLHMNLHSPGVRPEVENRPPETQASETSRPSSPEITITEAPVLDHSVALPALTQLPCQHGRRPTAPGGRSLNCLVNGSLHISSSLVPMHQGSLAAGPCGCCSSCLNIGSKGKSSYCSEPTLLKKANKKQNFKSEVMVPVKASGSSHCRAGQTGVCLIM

[16] = target: SRSF protein kinase 3 (Homo sapiens) (UniProt Q9UPE1)
Chain of SRSF protein kinase 3 (Homo sapiens) (Q9UPE1 whole entry): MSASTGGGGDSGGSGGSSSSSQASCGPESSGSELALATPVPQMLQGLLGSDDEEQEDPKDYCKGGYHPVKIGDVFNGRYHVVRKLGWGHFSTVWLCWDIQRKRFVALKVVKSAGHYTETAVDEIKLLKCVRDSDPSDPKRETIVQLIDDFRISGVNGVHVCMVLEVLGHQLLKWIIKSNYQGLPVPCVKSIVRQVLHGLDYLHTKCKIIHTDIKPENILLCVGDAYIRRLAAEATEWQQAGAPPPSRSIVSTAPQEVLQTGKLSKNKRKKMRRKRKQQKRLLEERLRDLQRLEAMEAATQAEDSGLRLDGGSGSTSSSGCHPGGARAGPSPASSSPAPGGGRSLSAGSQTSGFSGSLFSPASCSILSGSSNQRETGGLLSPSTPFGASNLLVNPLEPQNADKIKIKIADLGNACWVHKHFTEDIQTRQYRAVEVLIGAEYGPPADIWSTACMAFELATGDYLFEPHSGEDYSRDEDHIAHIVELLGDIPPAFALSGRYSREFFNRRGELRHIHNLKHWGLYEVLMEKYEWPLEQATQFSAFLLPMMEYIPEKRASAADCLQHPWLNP

[17] = target: Vascular endothelial growth factor receptor 3 (Homo sapiens) (UniProt P35916)

Measured: % residual kinase activity

Chain of Casein kinase I isoform delta (Homo sapiens) (P48730 whole entry, looked up, canonical isoform): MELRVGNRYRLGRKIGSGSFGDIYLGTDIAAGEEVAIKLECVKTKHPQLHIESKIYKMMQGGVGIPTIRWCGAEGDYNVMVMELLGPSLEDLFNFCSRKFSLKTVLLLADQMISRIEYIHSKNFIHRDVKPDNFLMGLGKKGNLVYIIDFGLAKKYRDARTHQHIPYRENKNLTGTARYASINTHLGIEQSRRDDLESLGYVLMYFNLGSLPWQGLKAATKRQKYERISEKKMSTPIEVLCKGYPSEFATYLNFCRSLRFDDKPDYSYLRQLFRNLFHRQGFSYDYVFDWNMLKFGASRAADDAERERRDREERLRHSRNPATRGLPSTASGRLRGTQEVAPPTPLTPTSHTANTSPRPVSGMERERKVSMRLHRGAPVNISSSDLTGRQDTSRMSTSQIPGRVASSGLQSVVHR

CN1CCN(c2cnc3c(C4CCN(C(=O)c5ccc(OC(F)(F)F)cc5N)CC4)ncnc3c2)CC1 [BAY-885]
inactive: [1] 91% | [2] 116% | [3] 128% | [4] 109% | [5] 93% | [6] 99% | [7] 107% | [8] 93% | [9] 100% | [10] 92% | [11] 127% | [12] 96% | [13] 92% | [14] 98% | [15] 103% | [16] 78% | [17] 98%
